# Values joined by “and” are separate entries in the source; they are usually repeats but may differ in a detail not shown here. Equal entries are not always repeated. Where two headings read alike, the source gives them in different places.
# How the values were obtained:
# Assay type in all cases: cell-based, human
# pAKT = test: Immunoblot with densitometric quantification
# Protocol: Protein concentration was determined using the BCA Protein Assay (Pierce), and 20-50 μg of lysate were separated in a 4-12% SDS-PAGE gel. After transfer, membranes were blocked for 15-30 min at room temperature in 5% BSA (Sigma) in Tris-buffered saline containing 0.1% Tween-20. Primary antibody was incubated for either 1.5 hours at room temperature or overnight at 4° C. Secondary antibody was incubated for 30-45 min at room temperature, and proteins were visualized with West Pico Stable (Pierce). All antibodies were used at 1:1000 dilution unless otherwise stated. pT308AKT, AKT, pT180/Y182, pT183/Y185 P38MAPK, pP38MAPK, pT202/Y204 pERK1/2, ERK1, pT183/Y185, pJNK1/2, JNK1, pT71ATF2, pT581MSK1, pT14 Cdc2, Cdc2, pT68Chk2 (cell signaling), pT334MAPKAPK, pS82HSP27 (Cell Signaling Technology, Danvers, Mass.), α-tubulin (Biomarkers, 1:50,000), Cyclin B1 (Santa Cruz Biotechnologies) and horseradish peroxidase-conjugated anti-rabbit IgG and anti-mouse IgG (1:5,000, Pierce).
# Densitometric quantifications were carried out using ImageJ software (NIMH).
# […] The family of MAPK enzymes plays a pivotal role in cell growth, survival and cellular stress responses. […]
# MDA-MB-231 cells = test: Hoechst 33342 staining; conditions: 48 hours
# Protocol: MDA-MB-231 cells were seeded out into 96 well plates in triplicate at 3000 cell per well. […] After 48 hours, the medium was aspirated off and 100 μl of Hoechst dye (2 μg/ml), diluted with the medium, was added to the cells and incubated for 15 minutes. Stained cells were observed under a fluorescence microscope (Zeiss 5 Instruments, Thornwood, N.Y.).
# ALDH1 = test: Aldefluor ALDH expression; conditions: MCF-7 primary mammospheres; reduced from 6%
# Protocol: MCF-7 mammospheres were trypsinized, gently vortexed and passed through a 40 uM cell filter to produce single cell suspensions. Cells (5×10^5) were washed and re-suspended in growth media (Lonza). To identify the Aldefluor-stained cell population with ALDH1 enzymatic activity, the Aldefluor kit (Stem Cell Technologies), which is designed for optimal identification and isolation of stem cells through specific interaction with human ALDH1 was used. Briefly, cells were suspended in Aldefluor assay buffer containing uncharged ALDH1-substrate, BODIPY-aminoacetaldehyde (BAAA), and incubated for 45 min at 37° C., with gently vortexing every 15 min. BAAA is taken up by living cells through passive diffusion and then converted by intracellular ALDH into a negatively charged reaction product BODIPY-aminoacetate, which is retained inside cells expressing high levels of ALDH1, causing the cells to become brightly fluorescent. Fluorescent ALDH1-expressing cells were detected in the green fluorescence channel (520-540 nm) of a FACScan instrument (BD Biosciences). […] PI (Sigma) fluorescence was detected using the orange fluorescence channel. Cells incubated with BAAA and DEAB were used to establish the baseline fluorescence of cells and ALDH1-positive fraction. Data were analyzed by using Cell Quest software (BD Biosciences). […]
# MDA-MB-436 = test: Crystal violet monolayer growth assay; conditions: for IC50: after 7 days, read-out: IC50 of long-term proliferation
# Protocol: (§1) Cells were seeded at 1500 (MDA-MB-231, MDA-MB-436 and BJ fibroblasts) or 4000 cells per well of 96 well plates. […] At the indicated time points, individual plates were fixed and stained with crystal violet-methanol solution (50 μl per well) for 15 minutes, washed several times with distilled water and plates were air dried overnight. Sodium citrate solution (0.1M) was used to solubilize bound crystal violet and optical densities were measured at 560 nm (Glomax®-Multi Detection plate reader, Promega).
# (§2) Cells (MDA-MB-231, MDA-MB-436 and BJ fibroblasts) were seeded at 1500 or 4000 cells per well of 96 well plates. […] At the indicated time points, individual plates were fixed and stained with crystal violet solution (0.5% crystal violet and 25% methanol) for 15 min, washed several times in distilled water and air dried overnight. Sodium citrate solution (0.1M) was used to solubilize bound crystal violet and optimal densities were measured at 560 nm (Glomax®—Multi Detection plate reader, Promega).
# (§3) The effect of GR-24 (FIG. 3) on long-term cancer cell line growth was assessed by crystal violet assay. MCF-7 (estrogen receptor positive (ER+), tumorigenic, nonmetastatic), (A) MDA-MB-231, MDA-MB-436 (ER negative (−), metastatic) and BJ fibroblasts (normal, non-neoplastic line) were treated with GR-24 at a dose range of 0.5 to 10 ppm (1.65-33 μM). Growth was monitored for up to 10 days. At the indicated time points, plates were stained with crystal violet. Data are reported as the Percent Absorbance (560 nm) of vehicle control. Average±standard deviations (SD). Student's t-test (2-tailed, paired) was used to evaluate GR-24 treated groups with vehicle (control) groups at final time point and regarded as being significant if p<0.05 (*), very significant if p<0.01 (**), extremely significant if p<0.001 (***). (B) Is a graph showing the light absorbance reading (560 nm) after 7 days exposure to the indicated doses of GR-24. Data expressed as a percentage of vehicle controls. Average of triplicate samples+SD. Horizontal line (---) marks 50% reduction in Absorbance (560 nm) relative to vehicle controls.
# BJ fibroblasts = test: Crystal violet monolayer growth assay; conditions: up to 10 ppm, up to 10 days
# Protocol: as §1, §2, §3
# MCF-7 = test: Crystal violet monolayer growth assay
# Protocol: as §1, §2, §3
# MDA-MB-231 = test: Crystal violet monolayer growth assay; conditions: for IC50: after 7 days, read-out: IC50 of long-term proliferation
# Protocol: as §1, §2, §3
smiles,measurement,setting,value
"CC1=CC(O/C=C2\Cc3c(n(C)c4cc(-c5cccs5)ccc34)C2=O)OC1=O (racemic) [MEB-55, (±) 2E-4-methyl-2-(4-methyl-5-oxo-2,5-dihydrofuran-2-yloxymethylene)-6-thiophen-2-yl-1,4-dihydro-2H-cyclopenta[b]indol-3-one]",pAKT levels decrease,"pAKT; DU145, 8 hours",6 fold
same,pAKT levels,"pAKT; DU145, 24 hours",undetectable levels
"CC1=CC(O/C=C2/C(=O)c3c(c4cc(-c5scc6c5OCCO6)ccc4n3C)C2C)OC1=O (centres unmarked) [ST-362, (2E)-2-[(2,5-dihydro-4-methyl-5-oxofuran-2-yloxy)methylene]-1,2-dihydro-7-(2,3-dihydrothieno[3,4-b][1,4]dioxin-7-yl)-1,4-dimethyl-cyclopenta[b]indole-3-(4H)-one]",Concentrations resulting in increased nuclear condensation and fragmentation (indicative of apoptosis),MDA-MB-231 cells,10-15 ppm and 5-10 ppm
"CC1=C[C@H](O/C=C2/C(=O)O[C@@H]3c4ccccc4C[C@H]23)OC1=O (relative stereo) [GR-24, (3aR*,8bS*,E)-3-(((R*)-4-methyl-5-oxo-2,5-dihydrofuran-2-yloxy)methylene)-3,3a,4,8b-tetrahydro-2H-indeno[1,2-b]furan-2-one]",ALDH activity (ALDH positive cells) after treatment,ALDH1,2%
same,IC50,"MDA-MB-436; Homo sapiens, MDA-MB-436, 168 h",18.8 µM
same,IC50,MDA-MB-436,17.2 µM
same,Concentrations resulting in a significant reduction in growth compared to vehicle,MDA-MB-436; up to 10 days,2.5-5 ppm
same,Growth compared to vehicle,BJ fibroblasts,no significant reduction in growth
same,IC50,"MCF-7; Homo sapiens, MCF7, 168 h, after 7 days, read-out: IC50 of long-term proliferation",18.8 µM
same,IC50 of long-term proliferation,MCF-7; after 7 days,5.7 ppm
same,Concentrations resulting in a significant reduction in growth compared to vehicle,MCF-7; up to 10 days,2.5-5 ppm
same,IC50,"MDA-MB-231; Homo sapiens, MDA-MB-231, 168 h",22.1 µM
same,IC50,MDA-MB-231,18.8 µM
same,Concentrations resulting in a significant reduction in growth compared to vehicle,MDA-MB-231; up to 10 days,2.5-5 ppm
